From US11192871B2, “5-hydroxytryptamine receptor 7 activity modulators and their method of use” (Temple University-Of The Commonwealth System of Higher …, priority 2014, dated 2021)

Biological target: Serotonin 5HT7 receptors (Homo sapiens (Human), UniProt P34969)
Assay: Radiolabel Binding Studies for Serotonin 5HT7 receptors
Settings: for IC50: radioligand competition binding, membranes of cells expressing recombinant 5HT7 receptors; for inhibition at 10 µM: read-out: 5-HT7 % inhib @ 10 uM
Protocol: Radiolabel Binding Studies for Scrotonin 5HT7 Receptors, Method 1:
Eleven dilutions (5× assay concentration) of the compound of the disclosure and chlorpromazine are prepared in the Assay Buffer by serial dilution to yield final corresponding assay concentrations ranging from 10 pM to 10 μM.
(§1) A stock concentration of 5 nM [^3H]LSD (lysergic acid diethyl amide) is prepared in 50 mM Tris-HCl, 10 mM MgCl2, 1 mM EDTA, pH 7.4 (Assay Buffer). Aliquots (50 μl) of radioligand are dispensed into the wells of a 96-well plate containing 100 μl of Assay Buffer. Duplicate 50-μl aliquots of the compound of the disclosure test and chlorpromazine positive control reference compound serial dilutions are added.
(§2) Membrane fractions of cells expressing recombinant 5HT7 receptors (50 μL) are dispensed into each well. The membranes are prepared from stably transfected cell lines expressing 5HT7 receptors cultured on 10-cm plates by harvesting PBS-rinsed monolayers, resuspending and lysing in chilled, hypotonic 50 mM Tris-HCl, pH 7.4, centrifuging at 20,000×g, decanting the supernatant and storing at −80° C.; the membrane preparations are resuspended in 3 ml of chilled Assay Buffer and homogenized by several passages through a 26 gauge needle before using in the assay.
The 250-μl reactions are incubated at room temperature for 1.5 hours, then harvested by rapid filtration onto 0.3% polyethyleneimine-treated, 96-well filter mats using a 96-well Filtermate harvester. Four rapid 500-μl washes are performed with chilled Assay Buffer to reduce non-specific binding. The filter mats are dried, then scintillant is added to the filters and the radioactivity retained on the filters is counted in a Microbeta scintillation counter.
Raw data (dpm) representing total radioligand binding (i.e., specific+non-specific binding) are plotted as a function of the logarithm of the molar concentration of the competitor (i.e., test or reference compound).
Radiolabel Binding Studies for Serotonin 5-HT7 Receptors, Method 2:
as §1, with “[^3H]-5-Hydroxytryptamine ([^3H]-5HT)” for “[^3H]LSD (lysergic acid diethyl amide)”
as §2, with “guage” for “gauge”

| IC50 [nM] | inhibition at 10 µM [%] | Structure (SMILES) | 5-HT7 % inhib @ 10 uM (single concentration of 10 uM, percent inhibition of radioligand binding) [%] |
| --- | --- | --- | --- |
| 1000 |  | CCC1(CC)CC(CCN2CCN(c3ccc4nc(C(F)(F)F)[nH]c4c3)CC2)OC1=O (stereo not shown) [Entry 230068] |  |
| 1000 |  | COc1ccc(N2CCN(CC[C@H]3CC(C)(C)C(=O)O3)CC2)cc1 [Entry 230046] |  |
| 124 | 90 | COc1ccnc(N2CCN(CCC3CC4(CCCC4)C(=O)O3)CC2)c1 (stereo not shown) [Entry 230009] |  |
|  |  | O=C1OC(CCN2CCN(c3ccnc(Cl)c3)CC2)CC12CCCCC2 (stereo not shown) [Entry 160153] | 58.2 |
| 1000 |  | CCC1(CC)CC(CCCN2CCN(c3ccc(OC)cc3)CC2)OC1=O (stereo not shown) [Entry 230060] |  |
| 1000 | 15.9 | CCC1(CC)CC(CCN2CCN(c3ccc4nc(C)[nH]c4c3)CC2)OC1=O (stereo not shown) [Entry 230069] |  |
| 1000 |  | COc1ccc(N2CCN(CC[C@@H]3CC(C)(C)C(=O)O3)CC2)cc1 [Entry 230039] |  |

| Structure (SMILES) | IC50 [nM] | inhibition at 10 µM [%] | 5-HT7 % inhib @ 10 uM (single concentration of 10 uM, percent inhibition of radioligand binding) [%] |
| --- | --- | --- | --- |
| O=C1OC(CCN2CCN(c3ccc4[nH]ccc4c3)CC2)CC12CCCC2 (stereo not shown) [Entry 160147] |  | 99.6 |  |
